Measurements reported in patent EP0527889B1, “QUINOLIZINONE TYPE COMPOUNDS” (priority 1990, dated 1991).
Counter-ions that a name gives are not always drawn.

Assays:
[1] = test system: Pseudomonas aeruginosa K799/61; assay: In vitro antibacterial activity, MIC by agar dilution; type: cell-based; conditions: BHI agar, 35-37°C, 20-24 hours, unit assumed
Outline: (§1)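 Compound-containing agar plates received approximately 10^4 CFU per spot and were held at 35–37°C for about 20–24 hours; the endpoint was the lowest concentration yielding no growth against a compound-free control.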

Escherichia coli DC-2 = assay: as above; type: cell-based; conditions: BHI agar, 35-37°C, 20-24 hours, unit assumed
Outline: as §1

Escherichia coli JUHL [2] = assay: as above; type: cell-based; conditions: BHI agar, 35-37°C, 20-24 hours, unit assumed
Outline: as §1

[3] = test system: Staphylococcus aureus CMX 553; assay: as above; type: cell-based; conditions: BHI agar, 35-37°C, 20-24 hours, unit assumed
Outline: as §1

[4] = test system: Staphylococcus aureus NCTC 10649; assay: as above; type: cell-based; conditions: BHI agar, 35-37°C, 20-24 hours, unit assumed
Outline: as §1

[5] = test system: Pseudomonas aeruginosa A5007; assay: as above; type: cell-based; conditions: BHI agar, 35-37°C, 20-24 hours, unit assumed
Outline: as §1

Escherichia coli SS = assay: as above; type: cell-based; conditions: BHI agar, 35-37°C, 20-24 hours, unit assumed
Outline: as §1

Pseudomonas cepacia 296I = assay: as above; type: cell-based; conditions: BHI agar, 35-37°C, 20-24 hours, unit assumed
Outline: as §1

[6] = test system: Micrococcus luteus ATCC 4698; assay: as above; type: cell-based; conditions: BHI agar, 35-37°C, 20-24 hours, unit assumed
Outline: as §1

[7] = test system: Enterobacter aerogenes ATCC 13048; assay: as above; type: cell-based; conditions: BHI agar, 35-37°C, 20-24 hours, unit assumed
Outline: as §1

[8] = test system: Acinetobacter calcoaceticus CMX 669; assay: as above; type: cell-based; conditions: BHI agar, 35-37°C, 20-24 hours, unit assumed
Outline: as §1

[9] = test system: Staphylococcus aureus A-5278; assay: as above; type: cell-based; conditions: BHI agar, 35-37°C, 20-24 hours, unit assumed
Outline: as §1

[10] = test system: Streptococcus bovis A5169; assay: as above; type: cell-based; conditions: BHI agar, 35-37°C, 20-24 hours, unit assumed
Outline: as §1

[11] = test system: Staphylococcus epidermidis 3519; assay: as above; type: cell-based; conditions: BHI agar, 35-37°C, 20-24 hours, unit assumed
Outline: as §1

[12] = test system: Pseudomonas aeruginosa 2862; assay: as above; type: cell-based; conditions: BHI agar, 35-37°C, 20-24 hours, unit assumed
Outline: as §1

[13] = test system: Streptococcus pyrogenes EES61; assay: as above; type: cell-based; conditions: BHI agar, 35-37°C, 20-24 hours, unit assumed
Outline: as §1

[14] = test system: Streptococcus pyrogenes 2548 INDUC; assay: as above; type: cell-based; conditions: BHI agar, 35-37°C, 20-24 hours, unit assumed
Outline: as §1

[15] = test system: Klebsiella pneumoniae ATCC 8045; assay: as above; type: cell-based; conditions: BHI agar, 35-37°C, 20-24 hours, unit assumed
Outline: as §1

Escherichia coli KNK 437 = assay: as above; type: cell-based; conditions: BHI agar, 35-37°C, 20-24 hours, unit assumed
Outline: as §1

Escherichia coli H560 = assay: as above; type: cell-based; conditions: BHI agar, 35-37°C, 20-24 hours, unit assumed
Outline: as §1

[16] = test system: Staphylococcus aureus ATCC 6538P; assay: as above; type: cell-based; conditions: BHI agar, 35-37°C, 20-24 hours, unit assumed
Outline: as §1

[17] = test system: Streptococcus pyrogenes CONST; assay: as above; type: cell-based; conditions: BHI agar, 35-37°C, 20-24 hours, unit assumed
Outline: as §1

[18] = test system: Micrococcus luteus ATCC 9341; assay: as above; type: cell-based; conditions: BHI agar, 35-37°C, 20-24 hours, unit assumed
Outline: as §1

[19] = test system: Pseudomonas aeruginosa K799/WT; assay: as above; type: cell-based; conditions: BHI agar, 35-37°C, 20-24 hours, unit assumed
Outline: as §1

[20] = test system: Streptococcus agalactaciae CMX 508; assay: as above; type: cell-based; conditions: BHI agar, 35-37°C, 20-24 hours, unit assumed
Outline: as §1

[21] = test system: Staphylococcus aureus 1775; assay: as above; type: cell-based; conditions: BHI agar, 35-37°C, 20-24 hours, unit assumed
Outline: as §1

[22] = test system: Providencia stuartii CMX 640; assay: as above; type: cell-based; conditions: BHI agar, 35-37°C, 20-24 hours, unit assumed
Outline: as §1

[23] = test system: Enterococcus faecium ATCC 8043; assay: as above; type: cell-based; conditions: BHI agar, 35-37°C, 20-24 hours, unit assumed
Outline: as §1

[24] = test system: Pseudomonas aeruginosa BMH10; assay: as above; type: cell-based; conditions: BHI agar, 35-37°C, 20-24 hours, unit assumed
Outline: as §1

[25] = test system: Pseudomonas aeruginosa 5263; assay: as above; type: cell-based; conditions: BHI agar, 35-37°C, 20-24 hours, unit assumed
Outline: as §1

[26] = test system: Staphylococcus aureus A5177; assay: as above; type: cell-based; conditions: BHI agar, 35-37°C, 20-24 hours, unit assumed
Outline: as §1

[27] = test system: Staphylococcus aureus 642A; assay: as above; type: cell-based; conditions: BHI agar, 35-37°C, 20-24 hours, unit assumed
Outline: as §1

[28] = test system: Staphylococcus aureus NCTC 10649; assay: In vivo antibacterial activity in mice (protection from lethal intraperitoneal infection); conditions: NCTC10649, 144 h, S. aureus, CF-1 female mice infected intraperitoneally with 100 times the LD50, treated at 1 and 5 hr after infection, cumulative mortalities on the sixth day
Procedure: (§2) The in vivo antibacterial activity of the compounds of the present invention was determined as follows: Aqueous solutions of the test compounds were prepared by dissolving the compound in distilled water, except for the compounds of examples 169 and 170 which were dissolved in a solution of 2% DMSO in distilled water.
(§3) After 18 hr incubation, a culture of Staphylococcus aureus NCTC 10649 was serially diluted by using 10-fold dilutions in 5% (w/v) hog gastric mucin. Cultures (0.5 mL) in a dilution from 10^-1 to 10^-8 were injected intraperitoneally into CF-1 female mice weighing approximately 20g. The LD50 (median lethal dose) for the test organism was calculated from the cumulative mortalities on the sixth day by the using the Reed and Muench procedure (Reed, L.J., and H. Muench, Amer. J. Hygiene, 27, 493 (1938)).
(§4) The above 18 hr culture was diluted in 5% (w/v) hog gastric mucin to obtain 100 times the LD50, and 0.5 mL was injected intraperitoneally into mice. The mice were treated subcutaneously (sc) or orally (po) with a specific amount of the test compound divided equally to be administered at 1 and 5 hr after infection. A group of 10 animals each for at least three dose levels was thus treated, and the deaths were recorded daily for 6 days. Ten mice were left untreated as infection control. ED50 values were calculated from the cumulative mortalities on the sixth day after infection by using the trimmed version of the Logit method ( Hamilton, M.A., R.C. Russo, and R.V. Thurston, Environ. Sci. Technol. 11, 714 (1977)).

Escherichia coli JUHL [29] = assay: as above; conditions: 144 h, E. coli JUHL, mice infected intraperitoneally, treated at 1 and 5 hr after infection, cumulative mortalities on the sixth day
Procedure: as §2, §3, §4
The LD50 for Escherichia coli JUHL was determined in a manner similar to that above for S. aureus. The 18 hr cultures of this organism were also prepared for po and sc testing in mice, from which ED50 values were calculated. Positive controls were run with temafloxacin as the test compound, for which ED50 values were also calculated.

In the case of `C[C@H](N)C(=O)NC1CCN(c2nc3c(-c4ccc(F)cc4F)cc(C(=O)O)c(=O)n3cc2F)C1` (stereo partly drawn) [Example 167, 2-(3-(N-(S)-Alanyl)aminopyrrolidin-1-yl)-9-(2,4-difluorophenyl)-3-fluoro-6H-6-oxopyrido[1,2-a]pyrimidine-7-carboxylic acid hydrochloride], the MIC values [1] was 1.56 µg/mL, the MIC values (Escherichia coli DC-2) was 25 µg/mL and the MIC values (Escherichia coli JUHL [2]) was 1.56 µg/mL. The MIC values [3] was 6.2 µg/mL, the MIC values [4] was 0.78 µg/mL and the MIC values [5] was 6.2 µg/mL. For the same compound, the MIC values (Escherichia coli SS) was 0.05 µg/mL, the MIC values (Pseudomonas cepacia 296I) was 100 µg/mL and the MIC values [6] was 50 µg/mL. It also gave an MIC values [7] of 3.1 µg/mL, an MIC values [8] of 12.5 µg/mL and an MIC values [9] of 1.56 µg/mL. For the same compound, the MIC values [10] was 12.5 µg/mL, the MIC values [11] was 3.1 µg/mL and the MIC values [12] was greater than 100 µg/mL. The MIC values [13] was 6.2 µg/mL, the MIC values [14] was 1.56 µg/mL and the MIC values [15] was 3.1 µg/mL. For the same compound, the MIC values (Escherichia coli KNK 437) was 25 µg/mL, the MIC values (Escherichia coli H560) was 1.56 µg/mL and the MIC values [16] was 0.78 µg/mL. For the same compound, the MIC values [17] was 3.1 µg/mL, the MIC values [18] was 50 µg/mL and the MIC values [19] was 6.2 µg/mL. It also gave an MIC values [20] of 6.2 µg/mL, an MIC values [21] greater than 100 µg/mL and an MIC values [22] of 100 µg/mL. For the same compound, the MIC values [23] was 12.5 µg/mL, the MIC values [24] was 12.5 µg/mL and the MIC values [25] was greater than 100 µg/mL. It also gave an MIC values [26] of 3.1 µg/mL, an MIC values [27] of 3.1 µg/mL and an ED50 ([28]; po) of 14.4 mg/kg. For the same compound, the ED50 ([28]; sc) was 2.7 mg/kg, the ED50 (Escherichia coli JUHL [29]; po) was 16.6 mg/kg and the ED50 (Escherichia coli JUHL [29]; sc) was less than 2.5 mg/kg.
`C[C@H](N)C(=O)N[C@@H](C)C(=O)NC1CCN(c2nc3c(-c4ccc(F)cc4F)cc(C(=O)O)c(=O)n3cc2F)C1` (stereo partly drawn) [Example 168, 2-(3-(N-(S)-Alanyl-(S)-alanyl)aminopyrrolidin-1-yl)-9-(2,4-difluorophenyl)-3-fluoro-6H-6-oxopyrido[1,2-a]pyrimidine-7-carboxylic acid hydrochloride] showed an MIC values [1] of 1.56 µg/mL, an MIC values (Escherichia coli DC-2) of 25 µg/mL and an MIC values (Escherichia coli JUHL [2]) of 0.78 µg/mL. For the same compound, the MIC values [3] was 6.2 µg/mL, the MIC values [4] was 0.78 µg/mL and the MIC values [5] was 12.5 µg/mL. The MIC values (Escherichia coli SS) was 0.05 µg/mL, the MIC values (Pseudomonas cepacia 296I) was greater than 100 µg/mL and the MIC values [6] was 50 µg/mL. For the same compound, the MIC values [7] was 3.1 µg/mL, the MIC values [8] was 12.5 µg/mL and the MIC values [9] was 3.1 µg/mL. For the same compound, the MIC values [10] was 12.5 µg/mL, the MIC values [11] was 3.1 µg/mL and the MIC values [12] was greater than 100 µg/mL. It also gave an MIC values [13] of 6.2 µg/mL, an MIC values [14] of 1.56 µg/mL and an MIC values [15] of 3.1 µg/mL. For the same compound, the MIC values (Escherichia coli KNK 437) was 12.5 µg/mL, the MIC values (Escherichia coli H560) was 0.78 µg/mL and the MIC values [16] was 0.78 µg/mL. It also gave an MIC values [17] of 3.1 µg/mL, an MIC values [18] of 50 µg/mL and an MIC values [19] of 6.2 µg/mL. For the same compound, the MIC values [20] was 6.2 µg/mL, the MIC values [21] was greater than 100 µg/mL and the MIC values [22] was 100 µg/mL. For the same compound, the MIC values [23] was 12.5 µg/mL, the MIC values [24] was 3.1 µg/mL and the MIC values [25] was greater than 100 µg/mL. For the same compound, the MIC values [26] was 3.1 µg/mL, the MIC values [27] was 3.1 µg/mL and the ED50 ([28]; po) was 3 mg/kg. The ED50 ([28]; sc) was 2.8 mg/kg, the ED50 (Escherichia coli JUHL [29]; po) was 14.3 mg/kg and the ED50 (Escherichia coli JUHL [29]; sc) was less than 2.5 mg/kg.
